Reference: ChEMBL document CHEMBL4052706, “Isolation, structure elucidation, and synthesis of antiplasmodial quinolones from Crinum firmifolium” (Bioorg Med Chem, 2017)

How the values were obtained:
A2780 = test: Antiproliferative activity against human A2780 cells after 2 days by Alamar blue assay; type: cell-based; details: A2780, 48 h
[1] = Selectivity ratio of IC50 for human A2780 cells to IC50 for chloroquine/mefloquine-resistant Plasmodium falciparum Dd2
Plasmodium falciparum [2] = test: Antiplasmodial activity against chloroquine/mefloquine-resistant Plasmodium falciparum Dd2 incubated for 72 hrs by SYBR green 1 dye based fluorescence assay; type: functional; details: Dd2, 72 h
Plasmodium falciparum [3] = test: Antiplasmodial activity against chloroquine-sensitive Plasmodium falciparum 3D7 incubated for 72 hrs by SYBR green 1 dye based fluorescence assay; type: functional; details: 3D7, 72 h

SMILES | IC50 (A2780) | Ratio IC50 [1] | IC50 (Plasmodium falciparum [2]) | IC50 (Plasmodium falciparum [3])
CCCCCCCCc1cc(=O)c2ccccc2[nH]1 | 12000 nM | 3.4 | 3650 nM | –
CCCC(C)CCCc1cc(=O)c2ccccc2[nH]1 (centres undefined) | 29000 nM | 89 | 330 nM | 385 nM
COc1cc2c(cc1O)c(=O)n1ccc3cccc2c31 | > 75000 nM | – | > 38000 nM | –
CC(C)CCCCCc1cc(=O)c2ccccc2[nH]1 | 34000 nM | 57.7 | 583 nM | 501 nM
CCC(C)CCCCc1cc(=O)c2ccccc2[nH]1 (centres undefined) | 8700 nM | 11.6 | 750 nM | 921 nM
CNc1ccccc1-c1cc2c(cc1CO)OCO2 | > 78000 nM | – | > 39000 nM | –
CCCCCCCc1cc(=O)c2ccccc2[nH]1 | 35000 nM | – | 1320 nM | –
C[C@@H]1CC[C@H]2[C@@H](C)C(=O)O[C@@H]3O[C@@]4(C)CC[C@@H]1[C@]32OO4 [ARTEMISININ] | – | – | 9 nM | 5.9 nM
CC(=O)O[C@H]1C(=O)[C@@]2(C)[C@H]([C@H](OC(=O)c3ccccc3)[C@]3(O)C[C@H](OC(=O)[C@H](O)[C@@H](NC(=O)c4ccccc4)c4ccccc4)C(C)=C1C3(C)C)[C@]1(OC(C)=O)CO[C@@H]1C[C@@H]2O [PACLITAXEL] | 13.7 nM | – | – | –
